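Results reflect a 48-hour exposure of cells in 96-well plates to compound at five concentrations. The concentration for full growth arrest is given as TGI.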
How the values were obtained:
Test in all cases: inhibition of tumour cell growth, NCI panel, 48 h
786-0 renal = tested on: 786-0 renal
MDA-N = tested on: MDA-N
HCT-116 colon = tested on: HCT-116 colon
HOP-62 NSCLC = tested on: HOP-62 NSCLC
SF-268 CNS = tested on: SF-268 CNS
M14 melanoma = tested on: M14 melanoma
UO-31 renal = tested on: UO-31 renal
HS 578T breast = tested on: HS 578T breast
RXF 393 renal = tested on: RXF 393 renal
NCI-H226 lung = tested on: NCI-H226 lung

Row | SMILES | TGI (786-0 renal) [µM] | TGI (MDA-N) [µM] | TGI (HCT-116 colon) [µM] | TGI (HOP-62 NSCLC) [µM] | TGI (SF-268 CNS) [µM] | TGI (M14 melanoma) [µM] | TGI (UO-31 renal) [µM] | TGI (HS 578T breast) [µM] | TGI (RXF 393 renal) [µM] | TGI (NCI-H226 lung) [µM]
1 | CCN1CCCC(Nc2cc(C)nc(/N=C(/N)Nc3ccc(Cl)c(Cl)c3)n2)C1 (stereo unspecified) | 2.95 | 3.16 | 2.76 | 2.88 | 5.63 | 0.684 | 2.18 | – | – | –
2 | Cc1c(C#N)c2nnn(-c3ccccc3)c(=O)n2c1-c1ccccc1 | 30.1 | – | 13.2 | > 100 | > 100 | > 35.6 | > 100 | > 100 | > 24.2 | > 100
3 | COC(=O)/C=C/c1cc(OC)c2oc(-c3ccc(OC)c(OC)c3)c(C(=O)OC)c2c1 | > 100 | > 100 | – | – | > 100 | > 100 | > 100 | > 100 | – | –
4 | CC(=O)c1ccc(N2CCN(C3=CC(=O)c4c(O)ccc(O)c4C3=O)CC2)cc1 | > 100 | – | > 100 | > 100 | > 100 | > 100 | 35.5 | – | > 100 | –
5 | CC(C)=Nn1cnc(C(=N)C#N)c1N | > 100 | > 100 | > 100 | > 100 | > 100 | > 100 | > 100 | – | > 100 | > 100
6 | Cc1cc(S(=O)(=O)Nc2nc3ccccc3n2-c2ccccc2)c(S)cc1Cl | > 100 | > 100 | > 100 | – | > 100 | > 100 | > 100 | > 100 | > 100 | > 100
7 | CCOC(=O)c1c(NCc2ccccc2)n(-c2ccccc2)c(=S)n(-c2ccccc2)c1=O | > 100 | > 100 | – | – | > 100 | > 100 | > 100 | 94.4 | > 100 | > 100
8 | CCC(=O)NC(OCC1(CC)COC1)(C(F)(F)F)C(F)(F)F | – | > 100 | > 100 | > 100 | > 100 | > 100 | > 100 | > 100 | > 100 | > 100
9 | Cc1nn(C)c2nc3ccc(Cl)cc3c(-c3ccccc3)c12 | > 100 | > 100 | > 100 | > 100 | > 100 | > 100 | > 100 | – | > 100 | > 100
10 | Cc1cc(C)c2c(=N)c3ccccc3n(CCCCCCO)c2n1 | 9.53 | 7.42 | – | 23.6 | 13.9 | 16.6 | 6.01 | 8.37 | 14.2 | 11.1
11 | N#Cc1c(Nc2nc3ccccc3s2)c2ccccc2n2c1nc1ccccc12 | > 100 | > 100 | > 100 | > 100 | > 100 | > 100 | > 100 | > 100 | – | –
12 | COc1cc(/C=N\NC(=O)C[N+](C)(C)C)cc(OC)c1OC | > 10 | > 10 | > 10 | > 10 | > 10 | > 10 | – | > 10 | – | –
13 | Cc1ccc(S(=O)(=O)c2ccc([N+](=O)[O-])o2)cc1 | 3.26 | – | 3.94 | 38.1 | 46.6 | 3.82 | 2.78 | 13.4 | 3.33 | 31.5
14 | Clc1nc(Nc2nc3ccccc3[nH]2)nc(Cl)c1Cc1ccccc1 | > 100 | > 100 | > 100 | – | > 100 | > 100 | > 100 | > 100 | > 100 | > 100
15 | COc1cc(OC)cc(-n2c(N)c(-c3nc4ccccc4n3C)c3ccc([N+](=O)[O-])cc3c2=O)c1 | > 100 | > 100 | > 100 | – | > 100 | – | > 100 | 83.3 | – | > 100
16 | C=CC(C)(C)c1cc([C@@H]2COc3cc(O)ccc3C2=O)c(O)c(O)c1OC | 31.6 | 51 | 32.6 | – | 37.4 | 46.5 | 35.4 | > 100 | 21.1 | > 100
17 | Cc1ccc(SC[C@@]2(C(F)F)NC(=O)NC2=O)cc1 | > 100 | – | > 100 | > 100 | > 100 | > 100 | > 100 | > 100 | > 100 | > 100
18 | CC1=C[C@@H](C)C[C@]2(C)CC[C@H](O2)[C@]23CC[C@](C)(C[C@H](O2)[C@@H]2O[C@@](C)(CC2=O)[C@@H](O)[C@H]2CC[C@@]4(CCC[C@@H](O4)[C@H](C)C(=O)O[C@H]4C[C@H]([C@]5(O)OCC[C@H](C)[C@@H]5O)O[C@H]4C=C1)O2)O3 | 0.181 | > 10 | – | 0.00916 | 0.0219 | – | 0.0231 | 0.00214 | 0.00747 | –
19 | O=C(O)c1cc(Cl)cc2c1NC1(N2)C(=O)Nc2ccccc21 (stereo unspecified) | > 100 | > 100 | > 100 | > 100 | > 100 | > 100 | > 100 | – | > 100 | > 100
20 | O=C1CCC2(O)C3Cc4ccc(Oc5nnnn5-c5ccccc5)c5c4C2(CCN3CC2CC2)C1O5 (stereo unspecified) | 41.2 | 51 | > 100 | > 100 | > 100 | 33.5 | 61.1 | > 100 | > 100 | –
21 | CC(C)(C)c1cc(C(=O)/C=C/c2ccn[nH]2)cc(C(C)(C)C)c1O | 3.05 | – | 6.11 | 9.52 | 6.39 | 3.51 | 3.23 | 9.22 | 3.19 | 11.6
22 | C[C@@H]1CC[C@@H](C)[C@](C)(CCc2ccoc2)C/C=C\C=C/1C(=O)O | > 50 | > 50 | > 50 | > 50 | – | > 50 | > 50 | > 50 | > 50 | > 50
23 | O=c1[nH]cnc2sc(=S)c3c(c12)CCC3 | 33.3 | – | > 100 | > 100 | > 100 | > 100 | > 100 | > 100 | 63.4 | 72.7
24 | COc1ccc2c(c1OC)C(=O)O[C@@H]2[C@H]1c2cc3c(cc2CCN1C)OCO3 | > 100 | > 100 | > 100 | > 100 | > 100 | > 100 | > 100 | > 100 | – | > 100
